According to the supplement of paper PMC6045584:
± gives the standard deviation of the averaged measurements.

Columns and labels:
CABOZANTINIB = compound: COc1cc2nccc(Oc3ccc(NC(=O)C4(C(=O)Nc5ccc(F)cc5)CC4)cc3)c2cc1OC [CABOZANTINIB]; experiment: surviving fraction relative to DMSO-only wells; higher = less growth inhibition; details: exposure time: 5 days
How it was run: (§1)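 Surviving fraction is CellTiter-Glo luminescence divided by the median of wells given DMSO only. For this, log-phase tumour cell lines went into 384-well plates at 250–500 cells per well and, 24 hours later, into five days of continuous inhibitor exposure at 0.5, 1, 5, 10, 50, 100, 500 and 1000 nM. Lines were screened three times and retained only if replicate Pearson r >0.7 and median Z' >0.3.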

LENVATINIB = compound: COc1cc2nccc(Oc3ccc(NC(=O)NC4CC4)c(Cl)c3)c2cc1C(N)=O [LENVATINIB]; experiment: as above; details: exposure time: 5 days
How it was run: as §1

| Test System | surviving fraction (CABOZANTINIB; 0.5 nM) | surviving fraction (CABOZANTINIB; 1 nM) | surviving fraction (CABOZANTINIB; 5 nM) | surviving fraction (CABOZANTINIB; 10 nM) | surviving fraction (CABOZANTINIB; 50 nM) | surviving fraction (CABOZANTINIB; 100 nM) | surviving fraction (CABOZANTINIB; 500 nM) | surviving fraction (CABOZANTINIB; 1000 nM) | surviving fraction (LENVATINIB; 0.5 nM) | surviving fraction (LENVATINIB; 1 nM) | surviving fraction (LENVATINIB; 5 nM) | surviving fraction (LENVATINIB; 10 nM) | surviving fraction (LENVATINIB; 50 nM) | surviving fraction (LENVATINIB; 100 nM) | surviving fraction (LENVATINIB; 500 nM) | surviving fraction (LENVATINIB; 1000 nM) |
| --- | --- | --- | --- | --- | --- | --- | --- | --- | --- | --- | --- | --- | --- | --- | --- | --- |
| HCC202 BREAST | 1.12 ± 0.14 | 1.11 ± 0.079 | 1.2 ± 0.031 | 1.15 ± 0.17 | 1.1 ± 0.28 | 1.13 ± 0.065 | 1.31 ± 0.12 | 1.09 ± 0.098 | 1.04 ± 0.13 | 0.977 ± 0.21 | 1.1 ± 0.33 | 1.32 ± 0.17 | 0.801 ± 0.56 | 1.15 ± 0.18 | 0.783 ± 0.6 | 0.946 ± 0.25 |
| MDAMB361 BREAST | 0.842 ± 0.099 | 0.796 ± 0.056 | 0.816 ± 0.042 | 0.844 ± 0.06 | 0.93 ± 0.081 | 0.887 ± 0.1 | 0.903 ± 0.054 | 0.89 ± 0.12 | 0.893 ± 0.098 | 0.873 ± 0.034 | 0.959 ± 0.032 | 0.865 ± 0.035 | 0.941 ± 0.08 | 0.978 ± 0.066 | 0.928 ± 0.063 | 0.763 ± 0.063 |
| COLO320DM LARGE INTESTINE | 1.08 ± 0.12 | 1.07 ± 0.13 | 1.04 ± 0.13 | 1.11 ± 0.08 | 1.18 ± 0.069 | 1.23 ± 0.093 | 1.16 ± 0.049 | 1.04 ± 0.099 | 1.16 ± 0.058 | 1.1 ± 0.077 | 1.05 ± 0.053 | 1.1 ± 0.18 | 1.17 ± 0.033 | 1.1 ± 0.072 | 1.14 ± 0.067 | 1.11 ± 0.068 |
| SCC003 HEADNECK | 0.921 ± 0.063 | 0.878 ± 0.055 | 0.97 ± 0.02 | 0.965 ± 0.047 | 1.08 ± 0.011 | 1.04 ± 0.029 | 0.98 ± 0.03 | 0.936 ± 0.1 | 1.18 ± 0.074 | 1.1 ± 0.13 | 1.16 ± 0.12 | 1.1 ± 0.032 | 1.13 ± 0.1 | 1.18 ± 0.064 | 1.13 ± 0.051 | 1.1 ± 0.098 |
| MG63 BONE | 0.966 ± 0.019 | 1.02 ± 0.042 | 1.05 ± 0.021 | 1.03 ± 0.032 | 1.03 ± 0.019 | 0.946 ± 0.037 | 0.724 ± 0.011 | 0.696 ± 0.031 | 1.02 ± 0.075 | 1.03 ± 0.06 | 1.08 ± 0.065 | 0.999 ± 0.032 | 0.965 ± 0.061 | 0.865 ± 0.065 | 0.666 ± 0.059 | 0.584 ± 0.029 |
